In brackets after ≈: the same amount, converted by molar mass.
Key:
[1] = Kinetic solubility of compound in HDM-PAMPA with buffer containing 5% DMSO at pH 1.2 incubated for 5 hrs by spectrophotometric analysis; type: ADME; conditions: for Kinetic_solubility: pampa, pH 1.2, 5 h; for solubility kinetic at 5 h: HDM-PAMPA buffer, pH 1.2, read-out: Kinetic_solubility
[2] = Apparent solubility of compound in fed state simulated intestinal fluid at pH 5 by spectrophotometric analysis; type: physicochemical
[3] = Octanol/water partition coefficient, logP of compound by RP-UHPLC analysis; type: physicochemical
[4] = Kinetic solubility of compound in HDM-PAMPA with buffer containing 5% DMSO at pH 6.8 incubated for 5 hrs by spectrophotometric analysis; type: ADME; conditions: for solubility kinetic at 5 h: HDM-PAMPA buffer, pH 6.8, read-out: Kinetic_solubility
[5] = Kinetic solubility of compound in HDM-PAMPA with buffer containing 5% DMSO at pH 7.4 incubated for 5 hrs by spectrophotometric analysis; type: ADME; conditions: read-out: Kinetic_solubility
[6] = Thermodynamic solubility of compound in buffer containing KH2PO4/Na2HPO4 with 1% v/v DMSO at pH 6.8 incubated for 24 hrs by spectrophotometric analysis; type: physicochemical; conditions: for Therm_solubility: buffer, pH 6.8, 24 h; for solubility thermodynamic at 24 h: KH2PO4/Na2HPO4 buffer, pH 6.8, read-out: Therm_solubility
[7] = Thermodynamic solubility of compound in buffer containing KH2PO4/Na2HPO4 with 1% v/v DMSO at pH 7.4 incubated for 24 hrs by spectrophotometric analysis; type: physicochemical; conditions: for solubility thermodynamic at 24 h: KH2PO4/Na2HPO4 buffer, pH 7.4, read-out: Therm_solubility
[8] = Thermodynamic solubility of compound in buffer containing HCl/KCl with 1% v/v DMSO at pH 1.2 incubated for 24 hrs by spectrophotometric analysis; type: physicochemical; conditions: for Therm_solubility: buffer, pH 1.2, 24 h; for solubility thermodynamic at 24 h: HCl/KCl buffer, pH 1.2, read-out: Therm_solubility
[9] = Apparent solubility of compound in fasted state simulated intestinal fluid at pH 6.5 by spectrophotometric analysis; type: physicochemical
[10] = Solubility of the compound in water; type: physicochemical
[11] = Ratio of compound kinetic solubility to clofibric acid kinetic solubility in HDM-PAMPA with buffer containing 5% DMSO at pH 7.4 incubated for 5 hrs by spectrophotometric analysis
[12] = Ratio of compound kinetic solubility to gemfibrozil kinetic solubility in HDM-PAMPA with buffer containing 5% DMSO at pH 6.8 incubated for 5 hrs by spectrophotometric analysis
[13] = Ratio of compound kinetic solubility to clofibric acid kinetic solubility in HDM-PAMPA with buffer containing 5% DMSO at pH 6.8 incubated for 5 hrs by spectrophotometric analysis
[14] = Ratio of compound kinetic solubility to gemfibrozil kinetic solubility in HDM-PAMPA with buffer containing 5% DMSO at pH 7.4 incubated for 5 hrs by spectrophotometric analysis

Compound | Kinetic_solubility [1] | solubility [2] [µg/mL] | logP [3] | Kinetic_solubility ([4]; pampa, pH 6.8, 5 h) | solubility kinetic at 5 h [5] [µg/mL] | Therm_solubility [6] | solubility thermodynamic at 24 h [7] [µg/mL] | Therm_solubility [8] | solubility [9] [µg/mL] | solubility [10] [µg/mL] | solubility kinetic at 5 h [1] [µg/mL] | solubility kinetic at 5 h [4] [µg/mL] | solubility thermodynamic at 24 h [6] [µg/mL] | Therm_solubility ([7]; buffer, pH 7.4, 24 h) | solubility thermodynamic at 24 h [8] [µg/mL] | Ratio [11] | Ratio [12] | Ratio [13] | Ratio [14]
COc1ccc(/C=C/c2ccc(OCCCC(C)(C)C(=O)O)cc2)cc1 | Insoluble(Bld) | 6.23 (≈ 17.6 µM) | 6.08 | Insoluble(Bld) | 7.32 (≈ 20.7 µM) | Insoluble(Bld) | 1.65 (≈ 4.66 µM) | Insoluble(Bld) | 7.13 (≈ 20.1 µM) |  |  |  |  |  |  |  |  |  | 
CCN(C)C(=O)Oc1cccc([C@H](C)N(C)C)c1 [RIVASTIGMINE] |  |  |  |  |  |  |  |  |  | 2040 (≈ 8150 µM) |  |  |  |  |  |  |  |  | 
CC(C)(Oc1ccc(CCCOc2ccc(/C=C/c3ccccc3)cc2)cc1)C(=O)O |  | 13.8 (≈ 33.3 µM) | 7.44 |  | 43 (≈ 103 µM) |  | 26.9 (≈ 64.7 µM) | Insoluble(Bld) | 24.8 (≈ 59.6 µM) |  | 0.89 (≈ 2.14 µM) | 44.2 (≈ 106 µM) | 27.9 (≈ 66.9 µM) |  |  |  |  |  | 
CC(C)(CCCOc1ccc(/C=C/c2ccccc2)cc1)C(=O)O | Insoluble(Bld) | 7.39 (≈ 22.8 µM) | 6.95 |  | 13 (≈ 40.1 µM) | Insoluble(Bld) |  | Insoluble(Bld) | 8.7 (≈ 26.8 µM) |  |  | 13.6 (≈ 41.9 µM) |  | Insoluble(Bld) |  |  |  |  | 
CC(C)(Oc1ccc(Cl)cc1)C(=O)O [CLOFIBRIC ACID] |  | > 50 | 2.96 |  | > 100 |  | > 50 |  | > 50 |  | > 100 | > 100 | > 50 |  | > 50 |  |  |  | 
Cc1ccc(C)c(OCCCC(C)(C)C(=O)O)c1 [GEMFIBROZIL] |  | > 25 | 4.9 |  | > 120 |  | > 25 |  | > 25 |  | 33.2 (≈ 133 µM) | > 120 | > 25 |  | 15.5 (≈ 61.8 µM) |  |  |  | 
CC(C)(Oc1ccc(CCCOc2ccc(C(=O)/C=C/c3ccccc3)cc2)cc1)C(=O)O | Insoluble(Bld) | 17.8 (≈ 39.9 µM) | 6.55 |  | 67.6 (≈ 152 µM) |  | 17.5 (≈ 39.3 µM) | Insoluble(Bld) | 19.6 (≈ 44.2 µM) |  |  | 68.4 (≈ 154 µM) | 16 (≈ 35.9 µM) |  |  |  |  |  | 
CC(C)(Oc1ccc(CCOc2ccc(/N=N/c3ccccc3)cc2)cc1)C(=O)O | Insoluble(Bld) | > 100 | 6.63 |  | 296 (≈ 733 µM) |  | 25.5 (≈ 62.9 µM) | Insoluble(Bld) | 63.5 (≈ 157 µM) |  |  | 300 (≈ 741 µM) | 13.9 (≈ 34.5 µM) |  |  | 2 to 3 | 2 to 3 | 2 to 3 | 2 to 3

Reference: ChEMBL document CHEMBL4373673, “Druggability profile of stilbene-derived PPAR agonists: determination of physicochemical properties and PAMPA study” (Medchemcomm, 2019)
